Results reported in ChEMBL document CHEMBL3352238, “Substituted indoles as selective protease activated receptor 4 (PAR-4) antagonists: Discovery and SAR of ML354” (Bioorg Med Chem Lett, 2014).

What was measured:
[1] = Intrinsic clearance in human; type: ADME, organism-based; conditions: in vivo
[2] = Intrinsic clearance in rat; type: ADME, organism-based; conditions: in vivo

| CLint scaled [1] [mL/min/kg] | CLint scaled [2] [mL/min/kg] | Compound |
| --- | --- | --- |
| 75 | 1090 | CCOC(=O)c1ccc(-c2nn(Cc3ccccc3)c3ccccc23)cc1 |
| 157 | 359 | Cn1c(CO)c(-c2ccccc2)c2cc([N+](=O)[O-])ccc21 |
| 77 | 1160 | CCOC(=O)c1ccc(-c2cn(Cc3ccccc3)c3ccccc23)cc1 |
